Measured values reported in patent US9695133B2, “Quinazolinone-based oncogenic-RAS-selective lethal compounds and their use” (THE TRUSTEES OF COLUMBIA UNIVERSITY IN THE CITY OF NEW YORK, priority 2012, dated 2017).

Tested on: HT-1080 cells
Test: Metabolite profiling (LC-MS/MS) upon erastin treatment
Type: cell-based, human
Settings: 5 μg/mL erastin 5 h
Method: 2 million HT-1080 cells were seeded in 10 cm culture dishes. […] 4 mL of cold 80% methanol was added to the cell monolayer to extract polar metabolites using a cell scraper. The cell lysate/methanol mixture was transferred to a 15 mL tube and centrifuged at 2,000×g at 4° C. for 10 minutes to pellet debris and proteins. The supernatant was transferred to a new tube and stored at −80° C. for liquid chromatography-mass spectrometry/mass spectrometry (LC-MS/MS) analysis. For lipid extract preparation, 3 mL of cold 100% isopropanol was added to the cell monolayer to scrape out cells. The resulting cell lysate/isopropanol mixture was transferred to a new 15 mL tube and centrifuged at 2,000×g at 4° C. for 10 minutes. The cleared supernatant was transferred to a new tube and stored at −20° C. for LC-MS/MS analysis.
The metabolite extract was subjected to LC-MS/MS analysis to determine the quantity of each metabolite in each sample.

## CCOc1ccccc1-n1c(C(C)N2CCN(C(=O)COc3ccc(Cl)cc3)CC2)nc2ccccc2c1=O (stereo not drawn) [erastin]
  2-aminodipate Erastin/DMSO: 0.6644
  2-aminodipate log2 (Erastin/DMSO): −0.59
  2′-deoxyadenosine Erastin/DMSO: 0.6549
  2′-deoxyadenosine log2 (Erastin/DMSO): −0.6107
  2′-deoxycytidine Erastin/DMSO: 1.737
  2′-deoxycytidine log2 (Erastin/DMSO): 0.7968
  4-hydroxybenzoate Erastin/DMSO: 0.9815
  4-hydroxybenzoate log2 (Erastin/DMSO): −0.02693
  4-pyridoxate Erastin/DMSO: 1
  4-pyridoxate log2 (Erastin/DMSO): 0.0001853
  5-HIAA (first entry) Erastin/DMSO: 0.7283
  5-HIAA (first entry) log2 (Erastin/DMSO): −0.4574
  5-HIAA (second entry) Erastin/DMSO: 1.231
  5-HIAA (second entry) log2 (Erastin/DMSO): 0.2997
  5-hydroxytryptophan Erastin/DMSO: 0.8725
  5-hydroxytryptophan log2 (Erastin/DMSO): −0.1967
  ADMA Erastin/DMSO: 0.8585
  ADMA log2 (Erastin/DMSO): −0.2201
  ADMA/SDMA Erastin/DMSO: 0.8985
  ADMA/SDMA log2 (Erastin/DMSO): −0.1543
  ADP Erastin/DMSO: 0.9616
  ADP log2 (Erastin/DMSO): −0.05643
  AMP Erastin/DMSO: 1.071
  AMP log2 (Erastin/DMSO): 0.09933
  Anthranilic acid Erastin/DMSO: 1.242
  Anthranilic acid log2 (Erastin/DMSO): 0.3128
  C14:0 CE Erastin/DMSO: 0.7897
  C14:0 CE log2 (Erastin/DMSO): −0.3407
  C14:0 LPC Erastin/DMSO: 3.625
  C14:0 LPC log2 (Erastin/DMSO): 1.858
  C14:0 SM Erastin/DMSO: 1.062
  C14:0 SM log2 (Erastin/DMSO): 0.08617
  C16:0 CE Erastin/DMSO: 0.9643
  C16:0 CE log2 (Erastin/DMSO): −0.05248
  C16:0 LPC Erastin/DMSO: 3.818
  C16:0 LPC log2 (Erastin/DMSO): 1.933
  C16:0 SM Erastin/DMSO: 1.03
  C16:0 SM log2 (Erastin/DMSO): 0.04281
  C16:1 CE Erastin/DMSO: 0.9321
  C16:1 CE log2 (Erastin/DMSO): −0.1015
  C16:1 LPC Erastin/DMSO: 5.386
  C16:1 LPC log2 (Erastin/DMSO): 2.429
  C16:1 SM Erastin/DMSO: 0.9808
  C16:1 SM log2 (Erastin/DMSO): −0.02798
  C18:0 CE Erastin/DMSO: 1.01
  C18:0 CE log2 (Erastin/DMSO): 0.01367
  C18:0 LPC Erastin/DMSO: 3.335
  C18:0 LPC log2 (Erastin/DMSO): 1.738
  C18:0 SM Erastin/DMSO: 1.018
  C18:0 SM log2 (Erastin/DMSO): 0.02559
  C18:1 CE Erastin/DMSO: 0.9198
  C18:1 CE log2 (Erastin/DMSO): −0.1206
  C18:1 LPC Erastin/DMSO: 3.744
  C18:1 LPC log2 (Erastin/DMSO): 1.904
  C18:1 SM Erastin/DMSO: 0.925
  C18:1 SM log2 (Erastin/DMSO): −0.1125
  C18:2 CE Erastin/DMSO: 0.9483
  C18:2 CE log2 (Erastin/DMSO): −0.07651
  C18:3 CE Erastin/DMSO: 0.9277
  C18:3 CE log2 (Erastin/DMSO): −0.1083
  C20:3 CE Erastin/DMSO: 0.7864
  C20:3 CE log2 (Erastin/DMSO): −0.3467
  C20:4 CE Erastin/DMSO: 0.9141
  C20:4 CE log2 (Erastin/DMSO): −0.1297
  C20:4 LPC Erastin/DMSO: 8.518
  C20:4 LPC log2 (Erastin/DMSO): 3.091
  C20:5 CE Erastin/DMSO: 0.8407
  C20:5 CE log2 (Erastin/DMSO): −0.2504
  C22:0 SM Erastin/DMSO: 0.96
  C22:0 SM log2 (Erastin/DMSO): −0.0589
  C22:1 SM Erastin/DMSO: 0.8374
  C22:1 SM log2 (Erastin/DMSO): −0.256
  C22:6 CE Erastin/DMSO: 0.7847
  C22:6 CE log2 (Erastin/DMSO): −0.3498
  C22:6 LPC Erastin/DMSO: 8.456
  C22:6 LPC log2 (Erastin/DMSO): 3.08
  C24:0 SM Erastin/DMSO: 0.9621
  C24:0 SM log2 (Erastin/DMSO): −0.05567
  C24:1 SM Erastin/DMSO: 0.8933
  C24:1 SM log2 (Erastin/DMSO): −0.1627
  C30:0 PC Erastin/DMSO: 0.8954
  C30:0 PC log2 (Erastin/DMSO): −0.1594
  C30:1 PC Erastin/DMSO: 1.014
  C30:1 PC log2 (Erastin/DMSO): 0.01988
  C30:2 PC Erastin/DMSO: 0.9467
  C30:2 PC log2 (Erastin/DMSO): −0.07901
  C32:0 PC Erastin/DMSO: 0.7948
  C32:0 PC log2 (Erastin/DMSO): −0.3314
  C32:0 PE Erastin/DMSO: 0.9821
  C32:0 PE log2 (Erastin/DMSO): −0.0261
  C32:1 DAG Erastin/DMSO: 1.055
  C32:1 DAG log2 (Erastin/DMSO): 0.07658
  C32:1 PC Erastin/DMSO: 0.9998
  C32:1 PC log2 (Erastin/DMSO): −0.0003379
  C32:1 PE Erastin/DMSO: 1.024
  C32:1 PE log2 (Erastin/DMSO): 0.03411
  C32:1 PI Erastin/DMSO: 1.261
  C32:1 PI log2 (Erastin/DMSO): 0.3346
  C32:2 PC Erastin/DMSO: 1.218
  C32:2 PC log2 (Erastin/DMSO): 0.2847
  C32:2 PE Erastin/DMSO: 1.018
  C32:2 PE log2 (Erastin/DMSO): 0.02554
  C34:0 PC Erastin/DMSO: 0.7975
  C34:0 PC log2 (Erastin/DMSO): −0.3264
  C34:0 PE Erastin/DMSO: 0.9533
  C34:0 PE log2 (Erastin/DMSO): −0.06907
  C34:1 DAG Erastin/DMSO: 0.8823
  C34:1 DAG log2 (Erastin/DMSO): −0.1807
  C34:1 PC Erastin/DMSO: 0.8993
  C34:1 PC log2 (Erastin/DMSO): −0.1531
  C34:1 PE Erastin/DMSO: 1.04
  C34:1 PE log2 (Erastin/DMSO): 0.05679
  C34:1 PI Erastin/DMSO: 1.173
  C34:1 PI log2 (Erastin/DMSO): 0.2306
  C34:2 DAG Erastin/DMSO: 1.089
  C34:2 DAG log2 (Erastin/DMSO): 0.1227
  C34:2 PC Erastin/DMSO: 1.049
  C34:2 PC log2 (Erastin/DMSO): 0.06833
  C34:2 PE Erastin/DMSO: 0.982
  C34:2 PE log2 (Erastin/DMSO): −0.02619
  C34:2 PI Erastin/DMSO: 1.286
  C34:2 PI log2 (Erastin/DMSO): 0.3633
  C34:3 PC Erastin/DMSO: 1.134
  C34:3 PC log2 (Erastin/DMSO): 0.1814
  C34:4 PC Erastin/DMSO: 1.086
  C34:4 PC log2 (Erastin/DMSO): 0.119
  C36:0 PC Erastin/DMSO: 0.6501
  C36:0 PC log2 (Erastin/DMSO): −0.6212
  C36:0 PE Erastin/DMSO: 0.9538
  C36:0 PE log2 (Erastin/DMSO): −0.06821
  C36:0 PI Erastin/DMSO: 1.006
  C36:0 PI log2 (Erastin/DMSO): 0.009131
